{"source": "patent US10568978B2", "about": "“Radiopharmaceutical synthesis methods” (Lantheus Medical Imaging, Inc., priority 2012, dated 2020)", "type_in_all_cases": "physicochemical", "key": {"[1]": {"assay": "Retention of flurpiridaz F 18 on PVDF, PTFE and RC filters with synthesis modules", "details": "Siemens Explora GN/LC (manual) and GE TracerLab MX (automated) modules; FIG. 9", "text": "This was particularly surprising since structurally and chemically, the PVDF filter is more similar to the PTFE filter than the RC filter. Further, the data substantiate that use of the RC filter membrane improves recovery of ^18F-bearing radiopharmaceuticals across multiple synthesis module platforms."}, "[2]": {"assay": "Measured log D (relative lipophilicity of analytes)", "details": "relative to BMS-747158-01"}, "[3]": {"assay": "Filter retention: percent recovery of analyte after syringe-pump filtration, HPLC at 295 nm pre- and post-filtration", "protocol": "In particular, compositions comprising BMS-747158-01 and BMS-747159-01 were prepared in water comprising absolute ethanol (4 wt. %) and sodium ascorbate (50 mg/mL; 5 wt. %) then loaded into plastic syringes (Norm-Ject™; 12 mL) and placed onto an automated syringe pump. Select filters were then placed on each respective syringe and the composition pumped through the units in a controlled fashion. In all cases, gravimetric analysis of the solution transfer process was performed in order to monitor efficiency of the liquid handling steps. Subsequent quantitative analysis of filter retention was then performed following HPLC determination of the absolute concentration of each analyte in both the pre- and post-filtered solutions; HPLC analysis with detection at 295 nm was performed according to established methods. The following equation was then utilized to determine the percent recovery for each analyte:\n[formula] Note a higher value of percent recovery equates to lower retention of the respective analyte, and thus improved overall filter performance. The analysis described herein captures both the mass of the compound that is retained as well as the volume of liquid that is retained. As no normalization is performed, the analysis thus allows for direct comparison of relevant filter parameters.\nThe compositions comprising BMS-747158-01 and BMS-747159-01 were passed through a variety of filters, as described herein. Individual filter parameters varied in terms of both membrane and housing composition, overall filter diameter, and in some instances the applied coating (Table 1). Further, effects of both individual analyte concentration as well as the overall rate of filtration were also evaluated."}}}
{"compound": "CC(C)(C)n1ncc(OCc2ccc(COCC[18F])cc2)c(Cl)c1=O", "note": "[flurpiridaz F 18]", "values": [{"measurement": "retention on PTFE and RC filters vs PVDF filter", "setting": "[1]", "value": "retain far less"}]}
{"compound": "CC(C)(C)n1ncc(OCc2ccc(COCCO)cc2)c(Cl)c1=O", "note": "[BMS-747159-01]", "values": [{"measurement": "lipophilicity (measured log D, relative)", "setting": "[2]", "value": "lower inherent lipophilicity"}]}
{"compound": "CC(C)(C)n1ncc(OCc2ccc(COCCF)cc2)c(Cl)c1=O", "note": "[BMS-747158-01]", "values": [{"measurement": "retention by filter housing composition", "setting": "[3]; HDPE and PP housings (no aromatic rings), filters of identical diameter, FIG. 5", "value": "retained lower amounts"}, {"measurement": "retention on PTFE and RC membranes in comparison to PVDF", "setting": "[3]; PTFE and RC filter membranes vs PVDF, FIG. 8", "value": "retained lower amounts"}, {"measurement": "retention by membrane composition", "setting": "[3]; PVDF membrane vs other membranes, filters of identical diameter, FIG. 4", "value": "retains the greatest amount"}, {"measurement": "retention after the initial filtration", "setting": "[3]; Pall PVDF filter, initial filtration, FIG. 6", "value": "retained large amounts"}]}
